Results as given in US8247211B2, “Glycopeptide antibiotics” (American Cyanamid Company, priority 2001, dated 2012).
≈ marks a conversion by molar mass, not a printed value.

Key:
Test in all cases: In vitro antibacterial evaluation: minimum inhibitory concentration (MIC), broth dilution method
Assay type in all cases: cell-based
Enterococcus sp. = conditions: 18 hours at 35° C.
How it was run: (§1)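 Inoculum: 5×10^5 CFU/mL. Range: 64-0.06 μg/mL. Medium: Muller-Hinton II […]; NCCLS M7-A2 broth dilution. Endpoint: lowest concentration inhibiting growth. Strains include methicillin-, penicillin- and/or vancomycin-resistant clinical isolates.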

Escherichia coli = conditions: 18 hours at 35° C.
How it was run: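 First, organisms are seeded at 5×10^5 CFU/mL into Muller-Hinton II […]. Next, antibiotic is applied across 64-0.06 μg/mL by broth dilution (NCCLS M7-A2). Finally, the lowest inhibitory concentration is recorded as MIC.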

Staphylococcus sp. = system: Staphylococcus sp.
How it was run: as §1

Streptococcus sp. = conditions: 18 hours at 35° C.
How it was run: as §1

[1] = broth dilution, inoculum 5×10^5 CFU/mL

MIC Enterococcus avium (GC 4558) (Enterococcus sp.; Enterococcus avium (GC 4558)): 8 µg/mL (≈ 5.05 µM)
MIC Enterococcus faecalis (ATCC 29212) (Enterococcus sp.; Enterococcus faecalis (ATCC 29212)): 32 µg/mL (≈ 20.2 µM)
MIC Enterococcus faecalis (GC 2242) (Enterococcus sp.; Enterococcus faecalis (GC 2242)): 32 µg/mL (≈ 20.2 µM)
MIC Enterococcus faecalis (GC 2691) (Enterococcus sp.; Enterococcus faecalis (GC 2691)): 32 µg/mL (≈ 20.2 µM)
MIC Enterococcus faecalis (GC 3059) (Enterococcus sp.; Enterococcus faecalis (GC 3059)): 32 µg/mL (≈ 20.2 µM)
MIC Enterococcus faecalis (GC 4552) (Enterococcus sp.; Enterococcus faecalis (GC 4552)): 32 µg/mL (≈ 20.2 µM)
MIC Enterococcus faecalis (GC 4553) (Enterococcus sp.; Enterococcus faecalis (GC 4553)): 16 µg/mL (≈ 10.1 µM)
MIC Enterococcus faecalis (GC 4554) (Enterococcus sp.; Enterococcus faecalis (GC 4554)): 32 µg/mL (≈ 20.2 µM)
MIC Enterococcus faecalis (GC 6189) (Enterococcus sp.; Enterococcus faecalis (GC 6189)): 32 µg/mL (≈ 20.2 µM)
MIC Enterococcus faecium (GC 2243) (Enterococcus sp.; Enterococcus faecium (GC 2243)): 16 µg/mL (≈ 10.1 µM)
MIC Enterococcus faecium (GC 4556) (Enterococcus sp.; Enterococcus faecium (GC 4556)): 32 µg/mL (≈ 20.2 µM)
MIC Enterococcus faecium (GC 4557) (Enterococcus sp.; Enterococcus faecium (GC 4557)): 16 µg/mL (≈ 10.1 µM)
MIC Enterococcus avium (GC 4558) (Enterococcus sp.; [1]): 8 µg/mL (≈ 5.05 µM)
MIC Enterococcus faecalis (ATCC 29212) (Enterococcus sp.; [1]): 32 µg/mL (≈ 20.2 µM)
MIC Enterococcus faecalis (GC 2242) (Enterococcus sp.; [1]): 32 µg/mL (≈ 20.2 µM)
MIC Enterococcus faecalis (GC 2691) (Enterococcus sp.; [1]): 32 µg/mL (≈ 20.2 µM)
MIC Enterococcus faecalis (GC 3059) (Enterococcus sp.; [1]): 32 µg/mL (≈ 20.2 µM)
MIC Enterococcus faecalis (GC 4552) (Enterococcus sp.; [1]): 32 µg/mL (≈ 20.2 µM)
MIC Enterococcus faecalis (GC 4553) (Enterococcus sp.; [1]): 16 µg/mL (≈ 10.1 µM)
MIC Enterococcus faecalis (GC 4554) (Enterococcus sp.; [1]): 32 µg/mL (≈ 20.2 µM)
MIC Enterococcus faecalis (GC 6189) (Enterococcus sp.; [1]): 32 µg/mL (≈ 20.2 µM)
MIC Enterococcus faecium (GC 2243) (Enterococcus sp.; [1]): 16 µg/mL (≈ 10.1 µM)
MIC Enterococcus faecium (GC 4556) (Enterococcus sp.; [1]): 32 µg/mL (≈ 20.2 µM)
MIC Enterococcus faecium (GC 4557) (Enterococcus sp.; [1]): 16 µg/mL (≈ 10.1 µM)
MIC Escherichia coli (ATCC 25922) (Escherichia coli; Escherichia coli (ATCC 25922)): >64 µg/mL
MIC Escherichia coli (GC 4559) (Escherichia coli; Escherichia coli (GC 4559)): >64 µg/mL
MIC Escherichia coli (GC 4560) (Escherichia coli; Escherichia coli (GC 4560)): 16 µg/mL (≈ 10.1 µM)
MIC Staphylococcus aureus (ATCC 29213) (Staphylococcus sp.; strain ATCC 29213): 32 µg/mL (≈ 20.2 µM)
MIC Staphylococcus aureus (GC 1131) (Staphylococcus sp.; strain GC 1131): 32 µg/mL (≈ 20.2 µM)
MIC Staphylococcus aureus (GC 3051) (Staphylococcus sp.; strain GC 3051): 32 µg/mL (≈ 20.2 µM)
MIC Staphylococcus aureus (GC 3053) (Staphylococcus sp.; strain GC 3053): 32 µg/mL (≈ 20.2 µM)
MIC Staphylococcus aureus (GC 4541) (Staphylococcus sp.; strain GC 4541): 32 µg/mL (≈ 20.2 µM)
MIC Staphylococcus aureus (GC 4542) (Staphylococcus sp.; strain GC 4542): 32 µg/mL (≈ 20.2 µM)
MIC Staphylococcus aureus-SMITH (GC 4543) (Staphylococcus sp.; strain GC 4543): 32 µg/mL (≈ 20.2 µM)
MIC Staphylococcus aureus (GC 4544) (Staphylococcus sp.; strain GC 4544): 32 µg/mL (≈ 20.2 µM)
MIC Staphylococcus aureus (GC 4545) (Staphylococcus sp.; strain GC 4545): 32 µg/mL (≈ 20.2 µM)
MIC Coagulase Negative Staphylococcus (GC 4547) (Staphylococcus sp.; strain GC 4547): 16 µg/mL (≈ 10.1 µM)
MIC Coagulase Negative Staphylococcus (GC 4548) (Staphylococcus sp.; strain GC 4548): 16 µg/mL (≈ 10.1 µM)
MIC Coagulase Negative Staphylococcus (GC 4549) (Staphylococcus sp.; strain GC 4549): 16 µg/mL (≈ 10.1 µM)
MIC Coagulase Negative Staphylococcus (GC 4551) (Staphylococcus sp.; strain GC 4551): 16 µg/mL (≈ 10.1 µM)
MIC Streptococcus agalactiae (GC 4564) (Streptococcus sp.; Streptococcus agalactiae (GC 4564)): 16 µg/mL (≈ 10.1 µM)
MIC Streptococcus pneumoniae (ATCC 6301) (Streptococcus sp.; Streptococcus pneumoniae (ATCC 6301)): 8 µg/mL (≈ 5.05 µM)
MIC Streptococcus pneumoniae (GC 1894) (Streptococcus sp.; Streptococcus pneumoniae (GC 1894)): 8 µg/mL (≈ 5.05 µM)
MIC Streptococcus pneumoniae (GC 4565) (Streptococcus sp.; Streptococcus pneumoniae (GC 4565)): 8 µg/mL (≈ 5.05 µM)
MIC Streptococcus pyogenes (GC 4563) (Streptococcus sp.; Streptococcus pyogenes (GC 4563)): 8 µg/mL (≈ 5.05 µM)
MIC Streptococcus agalactiae (GC 4564) (Streptococcus sp.; [1]): 16 µg/mL (≈ 10.1 µM)
MIC Streptococcus pneumoniae (ATCC 6301) (Streptococcus sp.; [1]): 8 µg/mL (≈ 5.05 µM)
MIC Streptococcus pneumoniae (GC 1894) (Streptococcus sp.; [1]): 8 µg/mL (≈ 5.05 µM)
MIC Streptococcus pneumoniae (GC 4565) (Streptococcus sp.; [1]): 8 µg/mL (≈ 5.05 µM)
MIC Streptococcus pyogenes (GC 4563) (Streptococcus sp.; [1]): 8 µg/mL (≈ 5.05 µM)
Structure (SMILES): CC(c1ccccc1)C1NC(=O)CNC(=O)C(CO)NC(=O)C(C(O)C2CN(c3ncccn3)C(=N)N2C2OC(CO)C(O)C(O)C2O)NC(=O)C(C(O)C2CNC(=Nc3ncccn3)N2)NC(=O)C(Cc2ccc(OC3OC(CO)C(OC4OC5COC6(OC5C(O)C4O)C4CC5CC(C4)CC6C5)C(O)C3O)cc2)NC1=O (stereo not drawn) [Example 228, Di-N-(2-(pyrimidinyl)-cyclo[glycyl-β-methylphenylalanyl-O-[4-O-[4,6-O-(2-adamantylidene)hexopyranosyl]hexopyranosyl]tyrosyl-3-[2-iminoimidazolidin-4-yl]seryl-3-β-hexopyranosyl-2-iminoimidazolidin-4-yl]serylseryl]]
MIC Staphylococcus haemolyticus (GC 4546) (Staphylococcus sp.; strain GC 4546): 16 µg/mL (≈ 10.1 µM)
